According to ChEMBL document CHEMBL3885881, “DrugMatrix”:

Species: Rattus norvegicus
Type: toxicity, organism-based, Sprague-Dawley
Settings: in vivo, po, route oral GAVAGE, vehicle 100 % SALINE; for ABSOLUTE EOSINOPHIL / ABSOLUTE LYMPHOCYTE / ABSOLUTE MONOCYTE / ABSOLUTE SEGMENTED NEUTROPHIL / BASOPHIL / EOSINOPHIL / ERYTHROCYTE COUNT / HEMATOCRIT / HEMOGLOBIN / LEUKOCYTE COUNT / LYMPHOCYTE / MEAN CORPUSCULAR HEMOGLOBIN / MEAN CORPUSCULAR HEMOGLOBIN CONCENTRATION / MEAN CORPUSCULAR VOLUME / MONOCYTE / NEUTROPHIL / NUCLEATED RED BLOOD CELLS / PLATELET COUNT: tissue Blood; for ALANINE AMINOTRANSFERASE / ALBUMIN / ALKALINE PHOSPHATASE / ASPARTATE AMINOTRANSFERASE / BLOOD UREA NITROGEN / CARBON DIOXIDE / CHLORIDE / CHOLESTEROL / CREATINE PHOSPHOKINASE / CREATININE / GLUCOSE / LACTATE DEHYDROGENASE / LIPASE / PHOSPHORUS / POTASSIUM / SODIUM / TOTAL BILIRUBIN / TOTAL PROTEIN / URIC ACID: tissue Plasma
[1] = 10 mg/kg, 24 h, dose level Low, time 1 day
[2] = 30 mg/kg, 6 h, dose level High, time 0.25 day
[3] = 30 mg/kg, 24 h, dose level High, time 1 day

Description: DrugMatrix - Regimen: Single

O=[As][O-].[Na+] [SODIUM ARSENITE]
ABSOLUTE EOSINOPHIL [1]: 15.17 CELLS/uL
ABSOLUTE LYMPHOCYTE [1]: 9656.17 CELLS/uL
ABSOLUTE MONOCYTE [1]: 190.33 CELLS/uL
ABSOLUTE SEGMENTED NEUTROPHIL [1]: 505 CELLS/uL
BASOPHIL [1]: 0%
EOSINOPHIL [1]: 0.17%
ERYTHROCYTE COUNT [1]: 4.96 x10E6/uL
HEMATOCRIT [1]: 32.55%
HEMOGLOBIN [1]: 12.85 G/DL
LEUKOCYTE COUNT [1]: 10.37 x10E3/uL
LYMPHOCYTE [1]: 93%
MEAN CORPUSCULAR HEMOGLOBIN [1]: 25.92 pg
MEAN CORPUSCULAR HEMOGLOBIN CONCENTRATION [1]: 39.47 G/DL
MEAN CORPUSCULAR VOLUME [1]: 65.67 fL
MONOCYTE [1]: 1.83%
NEUTROPHIL [1]: 5%
NUCLEATED RED BLOOD CELLS [1]: 0 /100WBC
PLATELET COUNT [1]: 1030.17 x10E3/uL
ALANINE AMINOTRANSFERASE [1]: 32.83 u/L
ALBUMIN [1]: 4.12 G/DL
ALKALINE PHOSPHATASE [1]: 249.5 u/L
ASPARTATE AMINOTRANSFERASE [1]: 61.17 u/L
BLOOD UREA NITROGEN [1]: 11 mg/dL
CARBON DIOXIDE [1]: 31.17 mmol/L
CHLORIDE [1]: 98.33 MEQ/L
CHOLESTEROL [1]: 81.67 mg/dL
CREATINE PHOSPHOKINASE [1]: 185.5 u/L
CREATININE [1]: 0.18 mg/dL
GLUCOSE [1]: 153.5 mg/dL
LACTATE DEHYDROGENASE [1]: 58.67 u/L
LIPASE [1]: 9.83 u/L
PHOSPHORUS [1]: 10.27 mg/dL
POTASSIUM [1]: 5.57 MEQ/L
SODIUM [1]: 143.25 MEQ/L
TOTAL BILIRUBIN [1]: 0.13 mg/dL
TOTAL PROTEIN [1]: 5.97 G/DL
URIC ACID [1]: 0.45 mg/dL
ABSOLUTE EOSINOPHIL [2]: 50 CELLS/uL
ABSOLUTE LYMPHOCYTE [2]: 13297 CELLS/uL
ABSOLUTE MONOCYTE [2]: 256.33 CELLS/uL
ABSOLUTE SEGMENTED NEUTROPHIL [2]: 2130 CELLS/uL
BASOPHIL [2]: 0%
EOSINOPHIL [2]: 0.33%
ERYTHROCYTE COUNT [2]: 5.91 x10E6/uL
HEMATOCRIT [2]: 39.97%
HEMOGLOBIN [2]: 14.47 G/DL
LEUKOCYTE COUNT [2]: 15.73 x10E3/uL
LYMPHOCYTE [2]: 84.67%
MEAN CORPUSCULAR HEMOGLOBIN [2]: 24.55 pg
MEAN CORPUSCULAR HEMOGLOBIN CONCENTRATION [2]: 36.2 G/DL
MEAN CORPUSCULAR VOLUME [2]: 67.78 fL
MONOCYTE [2]: 1.67%
NEUTROPHIL [2]: 13.33%
NUCLEATED RED BLOOD CELLS [2]: 0 /100WBC
PLATELET COUNT [2]: 1100.5 x10E3/uL
ALANINE AMINOTRANSFERASE [2]: 96.5 u/L
ALBUMIN [2]: 4.35 G/DL
ALKALINE PHOSPHATASE [2]: 225.33 u/L
ASPARTATE AMINOTRANSFERASE [2]: 192.17 u/L
BLOOD UREA NITROGEN [2]: 19.33 mg/dL
CARBON DIOXIDE [2]: 17.5 mmol/L
CHLORIDE [2]: 99.67 MEQ/L
CHOLESTEROL [2]: 64.33 mg/dL
CREATINE PHOSPHOKINASE [2]: 1132 u/L
CREATININE [2]: 0.23 mg/dL
GLUCOSE [2]: 205 mg/dL
LACTATE DEHYDROGENASE [2]: 746.17 u/L
LIPASE [2]: 8.17 u/L
PHOSPHORUS [2]: 16.53 mg/dL
POTASSIUM [2]: 6.95 MEQ/L
SODIUM [2]: 140.37 MEQ/L
TOTAL BILIRUBIN [2]: 0.2 mg/dL
TOTAL PROTEIN [2]: 5.83 G/DL
URIC ACID [2]: 4.12 mg/dL
ABSOLUTE EOSINOPHIL [3]: 0 CELLS/uL
ABSOLUTE LYMPHOCYTE [3]: 12176.83 CELLS/uL
ABSOLUTE MONOCYTE [3]: 320 CELLS/uL
ABSOLUTE SEGMENTED NEUTROPHIL [3]: 353.17 CELLS/uL
BASOPHIL [3]: 0%
EOSINOPHIL [3]: 0%
ERYTHROCYTE COUNT [3]: 5.64 x10E6/uL
HEMATOCRIT [3]: 36.4%
HEMOGLOBIN [3]: 14.38 G/DL
LEUKOCYTE COUNT [3]: 12.85 x10E3/uL
LYMPHOCYTE [3]: 94.83%
MEAN CORPUSCULAR HEMOGLOBIN [3]: 25.55 pg
MEAN CORPUSCULAR HEMOGLOBIN CONCENTRATION [3]: 39.53 G/DL
MEAN CORPUSCULAR VOLUME [3]: 64.63 fL
MONOCYTE [3]: 2.33%
NEUTROPHIL [3]: 2.83%
NUCLEATED RED BLOOD CELLS [3]: 0.17 /100WBC
PLATELET COUNT [3]: 1165.33 x10E3/uL
ALANINE AMINOTRANSFERASE [3]: 12.67 u/L
ALBUMIN [3]: 3.88 G/DL
ALKALINE PHOSPHATASE [3]: 235.5 u/L
ASPARTATE AMINOTRANSFERASE [3]: 43.83 u/L
BLOOD UREA NITROGEN [3]: 14.83 mg/dL
CARBON DIOXIDE [3]: 30.67 mmol/L
CHLORIDE [3]: 99.5 MEQ/L
CHOLESTEROL [3]: 62.17 mg/dL
CREATINE PHOSPHOKINASE [3]: 219.17 u/L
CREATININE [3]: 0.2 mg/dL
GLUCOSE [3]: 139.5 mg/dL
LACTATE DEHYDROGENASE [3]: 82 u/L
LIPASE [3]: 9 u/L
PHOSPHORUS [3]: 10.38 mg/dL
POTASSIUM [3]: 5.78 MEQ/L
SODIUM [3]: 143.5 MEQ/L
TOTAL BILIRUBIN [3]: 0.12 mg/dL
TOTAL PROTEIN [3]: 5.75 G/DL
URIC ACID [3]: 0.75 mg/dL
